# Laboratory results as given in PubChem BioAssay (NCI).
#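 Results reflect a 48-hour exposure of cells in 96-well plates to compound at five concentrations. The concentration for 50% growth inhibition is given as GI50. TGI denotes the concentration required for complete inhibition of growth.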
# What was measured:
# Assay in all cases: NCI tumour cell line growth inhibition, 48 h
# [1] = tested on: M14 melanoma
# [2] = tested on: UO-31 renal
# [3] = tested on: HCT-15 colon
# [4] = tested on: SF-295 CNS
# [5] = tested on: MOLT-4 leukemia
# [6] = tested on: HOP-62 NSCLC
# [7] = tested on: EKVX NSCLC
# [8] = tested on: K-562 leukemia
# [9] = tested on: SW-620 colon
# [10] = tested on: IGROV1 ovarian
# [11] = tested on: UACC-257 melanoma
# [12] = tested on: HCC-2998 colon
# [13] = tested on: SK-OV-3 ovarian
# [14] = tested on: NCI-H522 lung
# [15] = tested on: NCI-H226 lung
# [16] = tested on: MCF7 breast
# [17] = tested on: 786-0 renal
# [18] = tested on: DU-145 prostate
# [19] = tested on: CAKI-1 renal
# [20] = tested on: SF-539 CNS
# [21] = tested on: MALME-3M melanoma
# [22] = tested on: U251 CNS
# [23] = tested on: BT-549 breast
# [24] = tested on: LOX IMVI melanoma
# [25] = tested on: PC-3 prostate
# [26] = tested on: NCI-H460 lung
# [27] = tested on: SNB-75 CNS
# [28] = tested on: SR leukemia
# [29] = tested on: SNB-19 CNS
# [30] = tested on: HOP-92 NSCLC
# [31] = tested on: RXF 393 renal
# [32] = tested on: TK-10 renal
# [33] = tested on: SK-MEL-28 melanoma
# [34] = tested on: SK-MEL-5 melanoma
# [35] = tested on: OVCAR-3 ovarian
# [36] = tested on: HS 578T breast
# [37] = tested on: RPMI-8226 leukemia
# [38] = tested on: A498 renal
# [39] = tested on: OVCAR-5 ovarian
# [40] = tested on: HL-60(TB) leukemia
# [41] = tested on: OVCAR-8 ovarian
# [42] = tested on: OVCAR-4 ovarian
# [43] = tested on: MDA-MB-435
# [44] = tested on: NCI-H23 lung
# [45] = tested on: COLO 205 colon
# [46] = tested on: SF-268 CNS
# [47] = tested on: KM12 colon
# [48] = tested on: MDA-MB-231 breast
# [49] = tested on: SN12C renal
# [50] = tested on: ACHN renal
# [51] = tested on: HT29 colon
# [52] = tested on: CCRF-CEM leukemia
# [53] = tested on: UACC-62 melanoma
# [54] = tested on: MDA-MB-468 breast
# [55] = tested on: A549 NSCLC
# [56] = tested on: HCT-116 colon
# [57] = tested on: T-47D breast
smiles,measurement,setting,value
CCCCSc1nc(NCCc2c[nH]c3ccccc23)c(C#N)c(-c2ccccc2)n1,GI50,[1],12.3 µM
same,TGI,[1],26.9 µM
same,GI50,[2],14.6 µM
same,TGI,[2],34.3 µM
same,GI50,[3],4.44 µM
same,TGI,[3],16.9 µM
same,GI50,[4],13.8 µM
same,TGI,[4],29.8 µM
same,GI50,[5],5.73 µM
same,TGI,[5],78.8 µM
same,GI50,[6],12.8 µM
same,TGI,[6],29.7 µM
same,GI50,[7],10 µM
same,TGI,[7],32.4 µM
same,GI50,[8],4.91 µM
same,TGI,[8],> 100 µM
same,GI50,[9],6.48 µM
same,TGI,[9],23.3 µM
same,GI50,[10],16 µM
same,TGI,[10],32.3 µM
same,GI50,[11],20.4 µM
same,TGI,[11],47 µM
same,GI50,[12],7.92 µM
same,TGI,[12],21.8 µM
same,GI50,[13],22.4 µM
same,TGI,[13],61.3 µM
same,GI50,[14],15.5 µM
same,TGI,[14],32.5 µM
same,GI50,[15],12.4 µM
same,TGI,[15],27.3 µM
same,GI50,[16],5.26 µM
same,TGI,[16],19.7 µM
same,GI50,[17],10.5 µM
same,TGI,[17],27 µM
same,GI50,[18],14.1 µM
same,TGI,[18],32.1 µM
same,GI50,[19],5.56 µM
same,TGI,[19],20.7 µM
same,GI50,[20],12.3 µM
same,TGI,[20],27.2 µM
same,GI50,[21],17.7 µM
same,TGI,[21],32.6 µM
same,GI50,[22],11.4 µM
same,TGI,[22],25.3 µM
same,GI50,[23],12.3 µM
same,TGI,[23],25.7 µM
same,GI50,[24],4.48 µM
same,TGI,[24],15.5 µM
same,GI50,[25],4.42 µM
same,TGI,[25],37.9 µM
same,GI50,[26],4.2 µM
same,TGI,[26],18.4 µM
same,GI50,[27],14.1 µM
same,TGI,[27],47 µM
same,GI50,[28],4.88 µM
same,TGI,[28],> 100 µM
same,GI50,[29],17.2 µM
same,TGI,[29],34.6 µM
same,GI50,[30],5.54 µM
same,TGI,[30],25.4 µM
same,GI50,[31],11.9 µM
same,TGI,[31],25.8 µM
same,GI50,[32],26.1 µM
same,TGI,[32],54.7 µM
same,GI50,[33],14.5 µM
same,TGI,[33],29.1 µM
same,GI50,[34],9.88 µM
same,TGI,[34],21.5 µM
same,GI50,[35],14.7 µM
same,TGI,[35],29.1 µM
same,GI50,[36],12.5 µM
same,TGI,[36],61.5 µM
same,GI50,[37],12.1 µM
same,TGI,[37],> 100 µM
same,GI50,[38],16.2 µM
same,TGI,[38],31.6 µM
same,GI50,[39],12.6 µM
same,TGI,[39],26 µM
same,GI50,[40],16 µM
same,TGI,[40],82.5 µM
same,GI50,[41],23.7 µM
same,TGI,[41],> 100 µM
same,GI50,[42],11.8 µM
same,TGI,[42],34.8 µM
same,GI50,[43],13.7 µM
same,TGI,[43],27.4 µM
same,GI50,[44],12.8 µM
same,TGI,[44],27.9 µM
same,GI50,[45],11.5 µM
same,TGI,[45],29.5 µM
same,GI50,[46],14.6 µM
same,TGI,[46],43.7 µM
same,GI50,[47],4.59 µM
same,TGI,[47],18 µM
same,GI50,[48],11.1 µM
same,TGI,[48],25.4 µM
same,GI50,[49],12.7 µM
same,TGI,[49],25.5 µM
same,GI50,[50],12.7 µM
same,TGI,[50],28.5 µM
same,GI50,[51],4.34 µM
same,TGI,[51],16.4 µM
same,GI50,[52],5.38 µM
same,TGI,[52],> 100 µM
same,GI50,[53],13.7 µM
same,TGI,[53],26.6 µM
same,GI50,[54],5.3 µM
same,TGI,[54],18.8 µM
same,GI50,[55],22 µM
same,TGI,[55],82.3 µM
same,GI50,[56],3.82 µM
same,TGI,[56],16.5 µM
same,GI50,[57],3.78 µM
same,TGI,[57],19.4 µM
